From PMC8175851, “Effects of Genetic Polymorphism in CYP2D6, CYP2C19, and the Organic Cation Transporter OCT1 on Amitriptyline Pharmacokinetics in Healthy Volunteers and Depressive Disorder Patients” (Frontiers in Pharmacology, 2021)
Where two headings read alike, the source gives them in different places.

Key:
[1] = Pharmacokinetics of AT and NT in healthy volunteers after a single dose of 25 mg amitriptyline; type: in vivo, human; conditions: human, plasma, po, 25 mg, single oral 25 mg AT; for Cmax: read-out: Cmax
Source text: In order to enrich the study sample with the less frequent functionally deficient OCT1 variants, participants were selected based on OCT1 genotype from an internal database at the Institute of Clinical Pharmacology of the University Medical Center Göttingen. All volunteers who are listed in the internal database had agreed to it and the database was approved by the ethics committee of the University of Göttingen. […] Additional subjects with heterozygous genotypes were included to provide a better understanding of the effects of specific variants and the mode of inheritance. All volunteers gave their written informed consent before participation in the study. The study was approved by the ethics committee of the University of Göttingen and the German Federal Institute for Drugs and Medical Devices (BfArM). It was registered at the clinical trials databases Clinicaltrials.gov (NCT02054299) and EudraCT (number 2012-003546-33). […] Volunteers who underwent regular drug treatments other than oral contraceptives or who suffered from any relevant chronic illness, as well as pregnant or lactating women, were not included. All subjects were healthy according to a detailed medical history, medical examination, electrocardiogram, urine status and clinical chemistry, and haematology parameters (sodium, potassium, total bilirubin, aspartate aminotransferase, alanine-aminotransferase, creatinine, C-reactive protein, thyroid-stimulating hormone, haemoglobin, erythrocyte, thrombocyte, and leucocyte counts). […] After centrifugation (13,000 rpm, 15 min, room temperature), two-thirds of the supernatant were transferred to a new reaction tube and evaporated at 40°C under nitrogen flow. The residue was reconstituted under shaking in 0.1% methanoic acid and briefly centrifuged before quantification using a Nexera UHPLC system (Shimadzu, Kyoto, Japan) coupled to an API 4000 tandem mass spectrometer (AB Sciex, Darmstadt, Germany). […] PerkinElmer, Rodgau, Germany) with a Phenomenex C18 pre-column (4 × 2 mm, Phenomenex, Aschaffenburg, Germany). […] The lower limit of quantification was 0.5 ng/ml for AT and 0.1 ng/ml for NT. […] The mass spectrometry detection parameters are listed in Supplementary Table S1. For the study in healthy volunteers, the primary endpoints were the AUCs of plasma AT and NT concentrations. Secondary endpoints were the other pharmacokinetic parameters of AT and NT, as well as heart rate, blood pressure, pupil size effects, and possible adverse events (headache, fatigue, visual or hearing impairments, restlessness, nausea, dizziness, dry mouth, tremor, as well as sensations of hypothermia and heart palpitations determined using a visual analogue scale test). Pharmacokinetic parameters were calculated by non-compartmental analysis using Phoenix 64 WinNonlin version 6.3 (Certara Inc., Princeton, NJ, United States). AUCinf of AT was calculated from the time of dosing using the linear/log trapezoidal rule and extrapolated to infinity based on the last predicted concentration and using the terminal elimination rate constant (lambda z). AUC of NT was calculated from the time of dosing until the last measurement at 48 h using the linear/log trapezoidal rule, as a decline in NT concentrations was not observed in some subjects and extrapolation to infinity thus not possible.

[2] = Plasma concentrations per dose unit of AT and NT in depressive disorder patients (75 mg AT twice daily); type: in vivo, human; conditions: 12-hour-trough levels
Protocol: Briefly, 75 mg AT was administered twice daily at 12 h dosing intervals. Any drugs or dietary ingredients that might interfere with CYP2D6 or CYP2C19 metabolism were avoided whenever possible. Blood samples (12-hour-trough levels) were taken on days 0, 7, 14, 18, and 21, centrifuged, and stored at 4°C for genotyping (CYP2D6 and CYP2C19) and concentration analyses. The blood samples were subsequently stored at −20°C and later genotyped for OCT1.
The serum concentrations in depressive disorder patients were determined either by the Emit® immunoassay specific for AT and NT or a commercial high-performance liquid chromatography assay (Bio-Rad Laboratories GmbH, Feldkirchen, Germany), as described before ([Steimer et al., 2004]; [Steimer et al., 2005]).
The correlation between AT and NT plasma AUC (study in healthy volunteers) or mean plasma concentration per dose unit (study in depressive disorder patients) and OCT1, CYP2D6, and CYP2C19 genotypes were calculated using the Jonckheere-Terpstra non-parametric analysis, which takes into consideration the a priori ordering (or trend) in gene activities from zero to normal to ultra-rapid (for CYP2C19 and CYP2D6). To do so, the genotypes were categorized into 0, 1, or 2 active alleles for OCT1, into 0, 0.5, 1, 1.5, 2, 2.5, or 3 active alleles for CYP2D6, and into 0, 1, 1.5, 2, 2.5, or 3 active alleles for CYP2C19, depending on their known effects on transporter/enzyme activity. OCT1 alleles *2, *3, *4, *5 were classified as being zero active. […] A semi-quantitative gene dosage was calculated for CYP2D6, as has been described earlier ([Steimer et al., 2004]). For calculating a CYP2C19 activity score, CYP2C19*2 was regarded as zero active, CYP2C19*1 was classified as 1, and CYP2C19*17 as 1.5. Additional multiple linear regression analyses included sex, age, body mass index, and glomerular filtration rate.

[3] = both sexes, healthy volunteers, 0 active OCT1 alleles (n = 12)
[4] = both sexes, healthy volunteers, 1 active OCT1 allele (n = 9)
[5] = both sexes, healthy volunteers, 2 active OCT1 alleles (n = 14)
[6] = both sexes, healthy volunteers, CYP2C19 activity score 1 (n = 5), mean
[7] = both sexes, healthy volunteers, CYP2C19 activity score 1.5 (n = 2), mean
[8] = both sexes, healthy volunteers, CYP2C19 activity score 2 (n = 16), mean
[9] = both sexes, healthy volunteers, CYP2C19 activity score 2.5 (n = 10), mean
[10] = both sexes, healthy volunteers, CYP2D6 activity 0 (n = 3), mean
[11] = both sexes, healthy volunteers, CYP2D6 activity 0.5 (n = 2), mean
[12] = both sexes, healthy volunteers, CYP2D6 activity 1 (n = 10), mean
[13] = both sexes, healthy volunteers, CYP2D6 activity 1.5 (n = 6), mean
[14] = both sexes, healthy volunteers, CYP2D6 activity 2 (n = 11), mean
[15] = both sexes, healthy volunteers, CYP2D6 activity 2.5 (n = 1), mean
[16] = both sexes, healthy volunteers, CYP2D6 activity 3 (n = 2), mean
[17] = healthy volunteers, CYP2C19 activity score 0 (n = 1), mean
[18] = healthy volunteers, CYP2C19 activity score 3 (n = 1), mean

## CNCCC=C1c2ccccc2CCc2ccccc21 [Nortriptyline, nortriptyline]
[1]; both sexes, 35 healthy volunteers, read-out: AUC48h (range over all volunteers)
  AUC(0-t): 39.3 to 284 ng·h/mL
[1]; both sexes, healthy volunteers, 0 active OCT1 alleles (n = 12), read-out: AUC48h
  AUC(0-t): 90.2 ± 27.1 ng·h/mL
[1]; [3]
  Cmax: 2.7 ± 0.7 ng/mL
  Tmax: 6.2 ± 1.4 h
  half-life: 46.1 ± 24.4 h
[1]; both sexes, healthy volunteers, 1 active OCT1 allele (n = 9), read-out: AUC48h
  AUC(0-t): 88.3 ± 32.2 ng·h/mL
[1]; [4]
  Cmax: 2.6 ± 0.9 ng/mL
  Tmax: 6.7 ± 1.3 h
  half-life: 56.4 ± 31.3 h
[1]; both sexes, healthy volunteers, 2 active OCT1 alleles (n = 14), read-out: AUC48h
  AUC(0-t): 126 ± 63.5 ng·h/mL
[1]; [5]
  Cmax: 3.4 ± 1.4 ng/mL
  Tmax: 11.5 ± 8.7 h
  half-life: 40.1 ± 38.2 h
[1]; both sexes, healthy volunteers, CYP2C19 activity score 1 (n = 5), mean, read-out: AUC48h
  AUC(0-t): 69.4 ng·h/mL
[1]; [6]
  Cmax: 2.1 ng/mL
  Tmax: 6 h
  half-life: 48.2 h
[1]; both sexes, healthy volunteers, CYP2C19 activity score 1.5 (n = 2), mean, read-out: AUC48h
  AUC(0-t): 123 ng·h/mL
[1]; [7]
  Cmax: 3.5 ng/mL
  Tmax: 14.1 h
  half-life: 25.1 h
[1]; both sexes, healthy volunteers, CYP2C19 activity score 2 (n = 16), mean, read-out: AUC48h
  AUC(0-t): 103 ng·h/mL
[1]; [8]
  Cmax: 3 ng/mL
  Tmax: 6.6 h
  half-life: 47.7 h
[1]; both sexes, healthy volunteers, CYP2C19 activity score 2.5 (n = 10), mean, read-out: AUC48h
  AUC(0-t): 108 ng·h/mL
[1]; [9]
  Cmax: 3.1 ng/mL
  Tmax: 9.9 h
  half-life: 44.1 h
[1]; both sexes, healthy volunteers, CYP2D6 activity 0 (n = 3), mean, read-out: AUC48h
  AUC(0-t): 145 ng·h/mL
[1]; [10]
  Cmax: 3.48 ng/mL
  Tmax: 18.9 h
  half-life: 92 h
[1]; both sexes, healthy volunteers, CYP2D6 activity 0.5 (n = 2), mean, read-out: AUC48h
  AUC(0-t): 222 ng·h/mL
[1]; [11]
  Cmax: 5.54 ng/mL
  Tmax: 15.5 h
  half-life: 105 h
[1]; both sexes, healthy volunteers, CYP2D6 activity 1 (n = 10), mean, read-out: AUC48h
  AUC(0-t): 104 ng·h/mL
[1]; [12]
  Cmax: 2.94 ng/mL
  Tmax: 6.2 h
  half-life: 64.2 h
[1]; both sexes, healthy volunteers, CYP2D6 activity 1.5 (n = 6), mean, read-out: AUC48h
  AUC(0-t): 98.3 ng·h/mL
[1]; [13]
  Cmax: 2.79 ng/mL
  Tmax: 7 h
  half-life: 51.9 h
[1]; both sexes, healthy volunteers, CYP2D6 activity 2 (n = 11), mean, read-out: AUC48h
  AUC(0-t): 81.8 ng·h/mL
[1]; [14]
  Cmax: 2.57 ng/mL
  Tmax: 7.7 h
  half-life: 29.9 h
[1]; both sexes, healthy volunteers, CYP2D6 activity 2.5 (n = 1), mean, read-out: AUC48h
  AUC(0-t): 89.1 ng·h/mL
[1]; [15]
  Cmax: 3.11 ng/mL
  Tmax: 6 h
  half-life: 25 h
[1]; both sexes, healthy volunteers, CYP2D6 activity 3 (n = 2), mean, read-out: AUC48h
  AUC(0-t): 71.1 ng·h/mL
[1]; [16]
  Cmax: 2.49 ng/mL
  Tmax: 6 h
  half-life: 26.9 h
[1]; both sexes, healthy volunteers, OCT1 genotype *1 / *1 (n 14), mean ± standard deviation, read-out: AUC48h
  AUC(0-t): 126 ± 63 ng·h/mL
[1]; both sexes, healthy volunteers, OCT1 genotype *1 / *2 (n 3), mean ± standard deviation, read-out: AUC48h
  AUC(0-t): 115 ± 24 ng·h/mL
[1]; both sexes, healthy volunteers, OCT1 genotype *1 / *3 (n 4), mean ± standard deviation, read-out: AUC48h
  AUC(0-t): 78 ± 34 ng·h/mL
[1]; both sexes, healthy volunteers, OCT1 genotype *1 / *4 (n 2), mean ± standard deviation, read-out: AUC48h
  AUC(0-t): 69 ± 17 ng·h/mL
[1]; both sexes, healthy volunteers, OCT1 genotype *2 / *2 (n 3), mean ± standard deviation, read-out: AUC48h
  AUC(0-t): 109 ± 45 ng·h/mL
[1]; both sexes, healthy volunteers, OCT1 genotype *2 / *3 (n 4), mean ± standard deviation, read-out: AUC48h
  AUC(0-t): 90 ± 27 ng·h/mL
[1]; both sexes, healthy volunteers, OCT1 genotype *2 / *5 (n 1), read-out: AUC48h
  AUC(0-t): 83 ng·h/mL
[1]; both sexes, healthy volunteers, OCT1 genotype *3 / *3 (n 3), mean ± standard deviation, read-out: AUC48h
  AUC(0-t): 77 ± 11 ng·h/mL
[1]; both sexes, healthy volunteers, OCT1 genotype *3 / *4 (n 1), read-out: AUC48h
  AUC(0-t): 78 ng·h/mL
[1]; healthy volunteers, CYP2C19 activity score 0 (n = 1), mean, read-out: AUC48h
  AUC(0-t): 39.3 ng·h/mL
[1]; [17]
  Cmax: 1.05 ng/mL
  Tmax: 6 h
  half-life: 106 h
[1]; healthy volunteers, CYP2C19 activity score 3 (n = 1), mean, read-out: AUC48h
  AUC(0-t): 284 ng·h/mL
[1]; [18]
  Cmax: 6.5 ng/mL
  Tmax: 24.9 h
  half-life: 145 h
[2]; OCT1 genotype *1 / *1 (n 27), mean ± standard deviation
  Mean plasma concentration per dose unit: 34.0 ± 18.3
[2]; OCT1 genotype *1 / *2 (n 14), mean ± standard deviation
  Mean plasma concentration per dose unit: 33.5 ± 14.6
[2]; OCT1 genotype *1 / *3 (n 2), mean ± standard deviation
  Mean plasma concentration per dose unit: 34.6 ± 12.4
[2]; OCT1 genotype *1 / *4 (n 1)
  Mean plasma concentration per dose unit: 39.6
[2]; OCT1 genotype *2 / *2 (n 3), mean ± standard deviation
  Mean plasma concentration per dose unit: 40.6 ± 26.7
[2]; OCT1 genotype *2 / *3 (n 2), mean ± standard deviation
  Mean plasma concentration per dose unit: 28.0 ± 13.2
[2]; OCT1 genotype *3 / *3 (n 1)
  Mean plasma concentration per dose unit: 29.9
